Measured values: the NIST ThermoML archive (doi:10.1016/j.jct.2015.01.014)
Numbers after ± are expanded uncertainties.

Conditions: Liquid, Transpiration method

SMILES: OCCCO [propan-1,3-diol]
- vapor or sublimation pressure (292.5 K): 0.00167 ± 0.00012 kPa
- vapor or sublimation pressure (296.4 K): 0.00239 ± 0.00015 kPa
- vapor or sublimation pressure (300.4 K): 0.00346 ± 0.00023 kPa
- vapor or sublimation pressure (306.3 K): 0.00584 ± 0.00041 kPa
- vapor or sublimation pressure (338.7 K): 0.08145 ± 0.0052 kPa
- vapor or sublimation pressure (344.3 K): 0.1208 ± 0.0077 kPa
- vapor or sublimation pressure (346.4 K): 0.139 ± 0.0087 kPa
